Efflux ratio and IC50 data for 13 compounds are collected here from patent publication US11834453B2, “Substituted pyrimido[5,4-d]pyrimidines as HER2 inhibitors” (Array BioPharma Inc., priority 2020, dated 2023).

Each structure is given as a SMILES string.

Series [1] addresses T1, MDR1 (P-gp) (Homo sapiens (Human), UniProt P08183). As to the kind of experiment: MDR1 transfected MDCKII canine Mdr1 knockout permeability/efflux, Assay 7. The conditions noted are these: dog, MDCK-MDR1.
The target in series [2] is ErbB2 with Exon 20 YVMA insertion (HER2-YVMA) (Homo sapiens (Human), UniProt P04626, INS775YVMA). As to the kind of experiment: Cellular phosphorylation assay, constitutive ErbB2 phosphorylation (Y1196) in engineered NIH 3T3 cells, Assay 4. Type of series: cell-based. The method in brief: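 Engineered NIH 3T3 cells expressing HER2-YVMA treated with compounds 1 h at 37 °C, then formaldehyde-fixed and methanol-permeabilized. pErbB2 Y1196 detected by in-cell infrared immunofluorescence, normalized to GAPDH. IC50 from the normalized curves.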
Chain of ErbB2 with Exon 20 YVMA insertion (HER2-YVMA) (P04626 other isoform, or with tags, fused parts or gaps ins YVMA behind 775): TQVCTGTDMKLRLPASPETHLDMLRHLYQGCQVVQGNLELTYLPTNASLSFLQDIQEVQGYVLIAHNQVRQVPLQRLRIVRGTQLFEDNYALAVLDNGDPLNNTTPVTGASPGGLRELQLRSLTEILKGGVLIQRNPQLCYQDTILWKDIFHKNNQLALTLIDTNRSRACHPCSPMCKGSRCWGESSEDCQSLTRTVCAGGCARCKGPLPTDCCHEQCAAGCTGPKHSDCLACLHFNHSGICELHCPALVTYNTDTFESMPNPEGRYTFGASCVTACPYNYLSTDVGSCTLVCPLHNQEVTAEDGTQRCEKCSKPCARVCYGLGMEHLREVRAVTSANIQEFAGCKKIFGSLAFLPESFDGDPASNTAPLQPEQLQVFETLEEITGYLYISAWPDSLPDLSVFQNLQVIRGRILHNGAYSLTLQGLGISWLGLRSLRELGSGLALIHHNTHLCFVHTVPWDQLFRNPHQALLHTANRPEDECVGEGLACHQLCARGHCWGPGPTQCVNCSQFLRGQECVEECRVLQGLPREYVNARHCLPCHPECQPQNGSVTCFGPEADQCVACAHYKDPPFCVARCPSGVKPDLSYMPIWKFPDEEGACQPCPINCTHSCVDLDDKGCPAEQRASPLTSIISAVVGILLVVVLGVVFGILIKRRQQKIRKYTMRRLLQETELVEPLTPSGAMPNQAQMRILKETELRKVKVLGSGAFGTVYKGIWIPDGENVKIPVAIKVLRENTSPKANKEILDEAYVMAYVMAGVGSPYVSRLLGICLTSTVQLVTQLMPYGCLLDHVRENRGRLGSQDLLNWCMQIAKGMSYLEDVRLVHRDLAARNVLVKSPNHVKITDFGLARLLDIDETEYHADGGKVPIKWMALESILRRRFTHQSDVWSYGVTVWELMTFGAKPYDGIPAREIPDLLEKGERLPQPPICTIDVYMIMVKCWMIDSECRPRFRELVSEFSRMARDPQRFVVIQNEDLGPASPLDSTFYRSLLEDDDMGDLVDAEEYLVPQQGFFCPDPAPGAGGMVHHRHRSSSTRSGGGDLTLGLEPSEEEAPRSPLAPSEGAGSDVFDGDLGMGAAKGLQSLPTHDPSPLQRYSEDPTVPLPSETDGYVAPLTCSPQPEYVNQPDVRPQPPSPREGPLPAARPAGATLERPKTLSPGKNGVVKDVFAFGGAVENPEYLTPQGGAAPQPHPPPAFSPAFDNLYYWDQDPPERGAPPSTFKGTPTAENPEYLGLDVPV

Series [3] deals with T1, MDR1 (P-gp). As to the kind of experiment: MDR1 transfected LLC-PK1 permeability/efflux, Assay 6. The conditions noted are these: pig, LLC-PK1, Assay 6 Pe Ratio, efflux ratio Papp(B-A)/Papp(A-B), MDR1 transfected LLC-PK1.
For the next series, the target named is ErbB2 WT (Homo sapiens (Human), UniProt P04626). As to the kind of experiment: ErbB enzyme assay (CisBio HTRF KinEASE-TK), Assay 2. Type of series: biochemical. An outline of the steps: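 ErbB2 phosphorylates 250 nM biotin-TK substrate at 1 mM ATP in 25 mM HEPES pH 7.4, 10 mM MgCl2, 0.01% Triton X-100 and 2% DMSO, for 30 min at 22 °C. Product is detected by HTRF with Sa-XL665 and TK-Ab-Cryptate. Percent of control is set by DMSO-only wells and pre-quenched wells.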
Chain of ErbB2 WT (P04626 23-1255): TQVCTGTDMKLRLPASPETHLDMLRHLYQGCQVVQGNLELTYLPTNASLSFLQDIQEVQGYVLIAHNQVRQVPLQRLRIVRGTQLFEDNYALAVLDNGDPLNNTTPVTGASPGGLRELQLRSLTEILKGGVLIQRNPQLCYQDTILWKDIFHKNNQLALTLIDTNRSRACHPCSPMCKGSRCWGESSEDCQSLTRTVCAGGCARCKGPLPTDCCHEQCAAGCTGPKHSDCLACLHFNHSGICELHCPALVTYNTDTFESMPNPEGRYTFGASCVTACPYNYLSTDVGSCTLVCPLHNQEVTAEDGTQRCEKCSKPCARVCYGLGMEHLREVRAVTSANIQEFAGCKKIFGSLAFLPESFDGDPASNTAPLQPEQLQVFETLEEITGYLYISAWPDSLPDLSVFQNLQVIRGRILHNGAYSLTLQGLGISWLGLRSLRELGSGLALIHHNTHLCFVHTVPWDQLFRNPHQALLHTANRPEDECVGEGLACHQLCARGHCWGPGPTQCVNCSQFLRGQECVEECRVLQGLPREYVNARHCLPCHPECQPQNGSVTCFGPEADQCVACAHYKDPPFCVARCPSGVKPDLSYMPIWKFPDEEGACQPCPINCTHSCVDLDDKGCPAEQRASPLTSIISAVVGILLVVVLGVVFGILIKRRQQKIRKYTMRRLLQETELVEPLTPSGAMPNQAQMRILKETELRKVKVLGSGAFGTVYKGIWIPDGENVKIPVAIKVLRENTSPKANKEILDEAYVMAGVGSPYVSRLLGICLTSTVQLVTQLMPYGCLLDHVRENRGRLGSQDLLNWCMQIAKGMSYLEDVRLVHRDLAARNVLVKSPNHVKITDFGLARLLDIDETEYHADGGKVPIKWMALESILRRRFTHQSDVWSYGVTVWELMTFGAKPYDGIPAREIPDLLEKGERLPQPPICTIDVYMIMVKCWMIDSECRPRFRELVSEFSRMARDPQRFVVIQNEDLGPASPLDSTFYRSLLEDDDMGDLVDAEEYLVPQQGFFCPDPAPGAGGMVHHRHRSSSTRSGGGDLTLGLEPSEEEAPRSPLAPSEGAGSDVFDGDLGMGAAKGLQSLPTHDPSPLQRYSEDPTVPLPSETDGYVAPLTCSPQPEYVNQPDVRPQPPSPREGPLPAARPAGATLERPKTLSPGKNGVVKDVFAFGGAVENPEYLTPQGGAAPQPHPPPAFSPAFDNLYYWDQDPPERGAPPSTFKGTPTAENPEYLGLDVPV

Series [4] addresses ErbB2 insYVMA (HER2-YVMA, SEQ ID NO: 2) (Homo sapiens, UniProt P04626, INS775YVMA/P1170A). Briefly: biochemical. The conditions noted are these: ErbB2 insYVMA enzyme assay; read-out: Assay 1 IC50.
Series [5] concerns the target T2, EGFR wild type (EGFR WT) (Homo sapiens (Human), UniProt P00533). Briefly: Cellular phosphorylation assay, EGF-stimulated EGFR phosphorylation (Y1068) in engineered NIH 3T3 cells, Odyssey imaging, Assay 5 (footnote 1). Type of series: cell-based. The conditions noted are these: values marked with footnote 1. The method, then:
NIH 3T3 cells were engineered to express ErbB2 with Exon 20 YVMA insertion (HER2-YVMA (SEQ ID NO: 2); Assay 4) or EGFR wild type (EGFR WT; Assay 5, footnote 1) with constructs obtained from GenScript and grown in DMEM supplemented with 10% fetal bovine serum and 15 μg/ml blasticidin. Cells were plated in 96-well plates at 40,000 or 45,000 cells/well for HER2-YVMA (SEQ ID NO: 2) and EGFR WT assays, respectively, and allowed to attach overnight at 37° C./5% CO2. Serially diluted compounds were added to the plates for 1 hour at 37° C./5% CO2. EGFR WT cells were stimulated with 100 ng/ml rEGF for an additional 10 minutes at 37° C./5% CO2. After compound incubation, medium was removed from the cells, which were then fixed in 3.7% formaldehyde in PBS at room temperature for 20 minutes. Following a wash with PBS, cells were permeabilized with 100% methanol at room temperature for 10 minutes. Cells were then washed with PBS/0.05% Tween-20 and blocked with Odyssey blocking buffer (LI-COR Biosciences) for at least 1 hour at room temperature. Antibodies to phosphorylated ErbB2 (Y1196, Cell Signaling #6942) or phosphorylated EGFR (Y1068, Cell Signaling #3777) and GAPDH (Millipore #MAB374) were added to the cells in blocking buffer containing 0.05% azide and incubated overnight at 4° C. After washing with PBS/0.05° i° Tween-20, the cells were incubated with fluorescently labeled secondary anti-rabbit antibody (LiCOR, IRDye 800CW #926-32211) and anti-mouse antibody (Molecular Probes, Alexa Fluor 680 #A21058) for 1 hour at room temperature in the dark. Cells were then washed and analyzed for fluorescence at both wavelengths using the Odyssey Infrared Imaging System (LI-COR Biosciences). Phosphorylated ErbB2 and EGFR signal was normalized to GAPDH signal to generate curves and calculate IC50 values.

The target in another series is EGFR (Homo sapiens (Human), UniProt P00533). As to the kind of experiment: ErbB enzyme assay (CisBio HTRF KinEASE-TK), Assay 3. Type of series: biochemical. The method in brief:
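HTRF KinEASE-TK assay: kinase with 250 nM biotinylated TK-substrate and 1 mM ATP in 25 mM HEPES pH 7.4, 10 mM MgCl2, 0.01% Triton X-100, 2% DMSO, 30 min at 22 °C. Quenched with Sa-XL665/TK-Ab-Cryptate, read after 1 h. IC50 from 4-parameter fit of percent of control.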
For orientation: Time-resolved FRET reads energy transfer from a long-lived donor to a nearby acceptor.

Another series deals with BCRP (Homo sapiens (Human), UniProt Q9UNQ0). As to the kind of experiment: BCRP transfected MDCKII canine Mdr1 knockout permeability/efflux, Assay 9. As to conditions: dog, Assay 9 Pe Ratio, efflux ratio Papp(B-A)/Papp(A-B), BCRP transfected MDCKII canine Mdr1 knockout.
Series [6] concerns the target T2, EGFR wild type (EGFR WT). As to the kind of experiment: Cellular phosphorylation assay, EGF-stimulated EGFR phosphorylation in engineered NIH 3T3 cells, Phospho-EGFR DuoSet IC ELISA, Assay 5. Type of series: cell-based. An outline of the steps:
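NIH 3T3 cells expressing EGFR WT (20,000/well, attached overnight) were exposed to serially diluted compound for 1 h at 37 °C, then stimulated with 100 ng/ml rEGF for 10 min. Phospho-EGFR in lysates measured by sandwich ELISA optical density; IC50 from curves.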

Chain of ErbB2 insYVMA (HER2-YVMA, SEQ ID NO: 2) (P04626 with tags, fused parts or gaps INS775YVMA/P1170A limits assumed): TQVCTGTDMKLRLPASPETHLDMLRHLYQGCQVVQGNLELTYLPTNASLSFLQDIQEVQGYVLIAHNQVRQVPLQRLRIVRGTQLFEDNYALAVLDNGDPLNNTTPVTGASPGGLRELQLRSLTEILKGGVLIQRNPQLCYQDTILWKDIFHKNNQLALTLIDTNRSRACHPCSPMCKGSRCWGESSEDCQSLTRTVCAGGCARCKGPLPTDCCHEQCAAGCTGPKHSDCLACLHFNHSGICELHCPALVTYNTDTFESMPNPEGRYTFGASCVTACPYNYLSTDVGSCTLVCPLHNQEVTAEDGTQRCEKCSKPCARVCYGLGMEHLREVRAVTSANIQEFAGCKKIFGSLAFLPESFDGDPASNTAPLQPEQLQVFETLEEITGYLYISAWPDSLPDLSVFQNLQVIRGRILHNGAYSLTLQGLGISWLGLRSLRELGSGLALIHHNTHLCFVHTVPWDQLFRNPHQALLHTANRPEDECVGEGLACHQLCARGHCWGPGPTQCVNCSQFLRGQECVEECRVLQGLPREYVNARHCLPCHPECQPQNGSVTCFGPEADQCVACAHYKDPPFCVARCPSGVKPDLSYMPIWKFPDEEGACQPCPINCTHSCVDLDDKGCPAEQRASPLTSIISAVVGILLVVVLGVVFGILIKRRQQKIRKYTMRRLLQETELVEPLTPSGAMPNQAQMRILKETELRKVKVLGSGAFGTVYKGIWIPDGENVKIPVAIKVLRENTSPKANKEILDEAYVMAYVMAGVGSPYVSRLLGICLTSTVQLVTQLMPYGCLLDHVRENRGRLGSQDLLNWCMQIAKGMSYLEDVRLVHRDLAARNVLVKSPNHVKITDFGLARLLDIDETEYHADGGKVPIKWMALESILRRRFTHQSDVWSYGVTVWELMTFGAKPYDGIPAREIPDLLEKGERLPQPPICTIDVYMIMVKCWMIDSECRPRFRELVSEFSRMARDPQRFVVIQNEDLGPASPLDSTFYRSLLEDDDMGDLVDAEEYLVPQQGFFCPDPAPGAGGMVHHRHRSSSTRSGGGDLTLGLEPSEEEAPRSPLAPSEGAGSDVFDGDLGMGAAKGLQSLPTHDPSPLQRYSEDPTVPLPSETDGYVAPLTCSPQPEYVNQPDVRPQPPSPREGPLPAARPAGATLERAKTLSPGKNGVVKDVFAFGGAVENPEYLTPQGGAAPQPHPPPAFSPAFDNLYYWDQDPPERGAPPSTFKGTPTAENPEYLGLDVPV
T1 sequence (P08183 whole entry): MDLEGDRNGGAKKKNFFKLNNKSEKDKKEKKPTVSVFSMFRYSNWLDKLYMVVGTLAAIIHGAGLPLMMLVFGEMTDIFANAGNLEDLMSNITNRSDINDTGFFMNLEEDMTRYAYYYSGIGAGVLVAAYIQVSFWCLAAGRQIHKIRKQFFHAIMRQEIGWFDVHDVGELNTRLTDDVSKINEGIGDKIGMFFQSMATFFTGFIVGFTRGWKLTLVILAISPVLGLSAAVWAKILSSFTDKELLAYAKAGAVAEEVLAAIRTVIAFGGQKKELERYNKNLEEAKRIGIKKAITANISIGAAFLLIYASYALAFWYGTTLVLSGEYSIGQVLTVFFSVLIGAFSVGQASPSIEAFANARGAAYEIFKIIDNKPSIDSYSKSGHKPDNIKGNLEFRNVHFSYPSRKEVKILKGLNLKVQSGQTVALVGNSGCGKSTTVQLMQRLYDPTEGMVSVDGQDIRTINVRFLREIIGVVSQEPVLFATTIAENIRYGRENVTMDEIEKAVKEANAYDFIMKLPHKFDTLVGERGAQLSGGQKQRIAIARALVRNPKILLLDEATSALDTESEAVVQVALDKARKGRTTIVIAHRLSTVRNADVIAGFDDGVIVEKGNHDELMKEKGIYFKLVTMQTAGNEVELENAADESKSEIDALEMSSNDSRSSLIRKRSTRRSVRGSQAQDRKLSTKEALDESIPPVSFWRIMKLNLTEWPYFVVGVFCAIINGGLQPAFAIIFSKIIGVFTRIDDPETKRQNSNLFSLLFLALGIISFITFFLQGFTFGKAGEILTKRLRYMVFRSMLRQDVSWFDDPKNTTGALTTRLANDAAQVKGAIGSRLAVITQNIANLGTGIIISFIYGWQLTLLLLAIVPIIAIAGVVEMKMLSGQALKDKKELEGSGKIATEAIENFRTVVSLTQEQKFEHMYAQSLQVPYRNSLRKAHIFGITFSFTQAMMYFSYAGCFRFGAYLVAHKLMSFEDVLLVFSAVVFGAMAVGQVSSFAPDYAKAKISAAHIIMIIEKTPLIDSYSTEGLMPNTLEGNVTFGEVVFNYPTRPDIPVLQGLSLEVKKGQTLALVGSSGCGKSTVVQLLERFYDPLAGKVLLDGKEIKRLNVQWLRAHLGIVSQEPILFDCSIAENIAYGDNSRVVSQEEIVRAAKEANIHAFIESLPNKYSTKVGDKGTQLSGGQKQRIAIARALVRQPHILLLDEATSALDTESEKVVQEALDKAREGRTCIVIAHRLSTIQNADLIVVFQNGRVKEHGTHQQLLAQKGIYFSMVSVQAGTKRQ

As usually defined, the efflux ratio is a quotient of directional permeabilities that is used to spot active efflux. The term IC50 denotes the midpoint of a concentration-inhibition curve. `CSc1ncc2ncnc(Nc3ccc(Oc4ccc5c(c4)ncn5C)c(C)c3)c2n1` [Example 1, N-(3-methyl-4-((1-methyl-1H-benzo[d]imidazol-5-yl)oxy)phenyl)-6-(methylthio)pyrimido[5,4-d]pyrimidin-4-amine]: the results for the efflux ratio at 2 h, 1 μM on MDR1 (P-gp) [1] and at MDR1 (P-gp) [3] were 1.4 and 1.2, respectively. Also, the IC50 in series [2] was 29.2 nM; against ErbB2 WT it was 41.1 nM; in series [4], 19.3 nM; on EGFR wild type (EGFR WT) [5], 5 µM; on EGFR, at least 10 µM.

Regarding `Cc1cc(Nc2ncnc3cnc(S(C)(=O)=O)nc23)ccc1Oc1ccc2c(c1)ncn2C` [Example 2, N-(3-methyl-4-((1-methyl-1H-benzo[d]imidazol-5-yl)oxy)phenyl)-6-(methylsulfonyl)pyrimido[5,4-d]pyrimidin-4-amine], the IC50 was determined as 4750 nM in series [2]; 14.9 nM against ErbB2 WT; 7.9 nM in series [4]; 5 µM against EGFR wild type (EGFR WT) [5]; 4.64 µM against EGFR.

On to `Cc1cc(Nc2ncnc3cnc(N(C)C)nc23)ccc1Oc1ccc2c(c1)ncn2C` [Example 3, N2,N2-dimethyl-N8-(3-methyl-4-((1-methyl-1H-benzo[d]imidazol-5-yl)oxy)phenyl)pyrimido[5,4-d]pyrimidine-2,8-diamine 2,2,2-trifluoroacetate], for which the efflux ratio at 2 h, 1 μM on MDR1 (P-gp) [1] and at MDR1 (P-gp) [3] was 1 in each case. Further, the IC50 in series [2] worked out at 42.9 nM; at ErbB2 WT, 52.4 nM; in series [4] it was 12.5 nM; on EGFR wild type (EGFR WT) [5] it was 5 µM; on EGFR, 8.25 µM.

`CNc1ncc2ncnc(Nc3ccc(Oc4ccc5c(c4)ncn5C)c(C)c3)c2n1` [Example 4, N2-methyl-N8-(3-methyl-4-((1-methyl-1H-benzo[d]imidazol-5-yl)oxy)phenyl)pyrimido[5,4-d]pyrimidine-2,8-diamine]: the efflux ratio at 2 h, 1 μM at MDR1 (P-gp) [1] amounted to 1.4; at MDR1 (P-gp) [3], 0.9. In addition, the IC50 in series [2] stood at 7.2 nM; on ErbB2 WT it was 30 nM; in [4] it was 8.9 nM; against EGFR wild type (EGFR WT) [5], 5 µM; at EGFR it was 4.9 µM.

On to `Cc1cc(Nc2ncnc3cnc(S(C)(=O)=O)nc23)ccc1Oc1ccc2c(C)onc2c1` [Example 5, N-(3-methyl-4-((3-methylbenzo[c]isoxazol-6-yl)oxy)phenyl)-6-(methylsulfonyl)pyrimido[5,4-d]pyrimidin-4-amine], for which the IC50 in series [2] worked out at 4450 nM; against ErbB2 WT, 10.9 nM; in [4], 9.8 nM; on EGFR wild type (EGFR WT) [5], 5 µM; against EGFR, 4.15 µM.

As to `COc1ncc2ncnc(Nc3ccc(Oc4ccc5c(C)onc5c4)c(C)c3)c2n1` [Example 6, 6-methoxy-N-(3-methyl-4-((3-methylbenzo[c]isoxazol-6-yl)oxy)phenyl)pyrimido[5,4-d]pyrimidin-4-amine], the IC50 in series [2] was 1450 nM; against ErbB2 WT, 232 nM; in series [4], 24.6 nM; at EGFR wild type (EGFR WT) [5], 5 µM; against EGFR it was at least 10 µM.

For the compound `COc1ncc2ncnc(Nc3ccc(Oc4ccc5csnc5c4)c(C)c3)c2n1` [Example 7, N-(4-(benzo[c]isothiazol-6-yloxy)-3-methylphenyl)-6-methoxypyrimido[5,4-d]pyrimidin-4-amine 2,2,2-trifluoroacetate], the efflux ratio at 2 h, 1 μM on MDR1 (P-gp) [1] worked out at 1.3; at MDR1 (P-gp) [3], 1. Moreover, the IC50 in series [2] was determined as 146 nM; against ErbB2 WT, 56.8 nM; in [4] it was 18.5 nM; against EGFR wild type (EGFR WT) [5] it was 5 µM; against EGFR, 2.01 µM.

Take `COc1ncc2ncnc(Nc3ccc(Oc4ccc5c(c4)ncn5C)c(C)c3)c2n1` [Example 8, 6-methoxy-N-(3-methyl-4-((1-methyl-1H-benzo[d]imidazol-5-yl)oxy)phenyl)pyrimido[5,4-d]pyrimidin-4-amine 2,2,2-trifluoroacetate]: the figures for the efflux ratio at 2 h, 1 μM on MDR1 (P-gp) [1] and on MDR1 (P-gp) [3] were 1 and 0.9, respectively. Also, the IC50 was 159 nM in series [2]; 69.7 nM against ErbB2 WT; 22.7 nM in [4]; 5 µM against EGFR wild type (EGFR WT) [5]; at least 10 µM at EGFR.

For the compound `Cc1cc(Nc2ncnc3cnc(N4CCOCC4)nc23)ccc1Oc1ccc2c(c1)ncn2C` [Example 9, N-(3-methyl-4-((1-methyl-1H-benzo[d]imidazol-5-yl)oxy)phenyl)-6-morpholinopyrimido[5,4-d]pyrimidin-4-amine 2,2,2-trifluoroacetate], the figures for the efflux ratio at 2 h, 1 μM at MDR1 (P-gp) [1] and on MDR1 (P-gp) [3] were 1.2 and 0.8, respectively. Moreover, the IC50 in series [2] was 4.9 nM; on ErbB2 WT, 64 nM; in series [4], 13.6 nM; on EGFR wild type (EGFR WT) [5] it was 5 µM; at EGFR it was at least 10 µM.

Consider `CSc1ncc2ncnc(Nc3ccc(Oc4ccc5conc5c4)c(C)c3)c2n1` [Example 10, N-(4-(benzo[c]isoxazol-6-yloxy)-3-methylphenyl)-6-(methylthio)pyrimido[5,4-d]pyrimidin-4-amine], for which the IC50 is 671 nM in [2]; 144 nM against ErbB2 WT; 49 nM in series [4]; 5 µM on EGFR wild type (EGFR WT) [5]; at least 10 µM against EGFR.

As to `CSc1ncc2ncnc(Nc3ccc(Oc4ccc5c(C)onc5c4)c(C)c3)c2n1` [Example 12, N-(3-methyl-4-((3-methylbenzo[c]isoxazol-6-yl)oxy)phenyl)-6-(methylthio)pyrimido[5,4-d]pyrimidin-4-amine], the IC50 in series [2] was 403 nM; against ErbB2 WT it was 275 nM; in series [4] it was 64.2 nM; against EGFR wild type (EGFR WT) [5] it was 5 µM; at EGFR, at least 10 µM.

As to `Cn1cnc2cc(Oc3ccc(Nc4ncnc5cnc(N6CC[C@H](CC#N)C6)nc45)cc3Cl)ccc21` [Example 358], the efflux ratio at 2 h, 1 μM on MDR1 (P-gp) [1] worked out at 1.6; at BCRP, 8.9. Further, the IC50 in series [2] is 19.2 nM; against ErbB2 WT, 35.8 nM; in series [4] it was 53.2 nM; at EGFR wild type (EGFR WT) [6] it was at least 5 µM; at EGFR, at least 10 µM.

As to `Cc1cc(Nc2ncnc3cnc(N(C)CC4COC4)nc23)ccc1Oc1ccc2c(c1)ncn2C` [Example 402], the efflux ratio at 2 h, 1 μM at MDR1 (P-gp) [1] came to 1.4; on BCRP, 2.3. Further, the concentration for half-maximal inhibition (IC50) in [2] was 14.9 nM; at ErbB2 WT, 14.9 nM; in series [4], 39.7 nM; against EGFR wild type (EGFR WT) [6], at least 5 µM; on EGFR, at least 10 µM.
